Test results published in US20240246967A1, “AXL COMPOUNDS” (ARCUS BIOSCIENCES, INC., priority 2021, published 2024).

biological target: T1, human MER (Homo sapiens, UniProt Q12866); experiment: HTRF KinEASE-TK biochemical potency assay, MER; details: 1 nM MER, 700 μM ATP, 800 nM TK Substrate-biotin
T1 construct: purchased Invitrogen
T1 sequence (Q12866 21-999): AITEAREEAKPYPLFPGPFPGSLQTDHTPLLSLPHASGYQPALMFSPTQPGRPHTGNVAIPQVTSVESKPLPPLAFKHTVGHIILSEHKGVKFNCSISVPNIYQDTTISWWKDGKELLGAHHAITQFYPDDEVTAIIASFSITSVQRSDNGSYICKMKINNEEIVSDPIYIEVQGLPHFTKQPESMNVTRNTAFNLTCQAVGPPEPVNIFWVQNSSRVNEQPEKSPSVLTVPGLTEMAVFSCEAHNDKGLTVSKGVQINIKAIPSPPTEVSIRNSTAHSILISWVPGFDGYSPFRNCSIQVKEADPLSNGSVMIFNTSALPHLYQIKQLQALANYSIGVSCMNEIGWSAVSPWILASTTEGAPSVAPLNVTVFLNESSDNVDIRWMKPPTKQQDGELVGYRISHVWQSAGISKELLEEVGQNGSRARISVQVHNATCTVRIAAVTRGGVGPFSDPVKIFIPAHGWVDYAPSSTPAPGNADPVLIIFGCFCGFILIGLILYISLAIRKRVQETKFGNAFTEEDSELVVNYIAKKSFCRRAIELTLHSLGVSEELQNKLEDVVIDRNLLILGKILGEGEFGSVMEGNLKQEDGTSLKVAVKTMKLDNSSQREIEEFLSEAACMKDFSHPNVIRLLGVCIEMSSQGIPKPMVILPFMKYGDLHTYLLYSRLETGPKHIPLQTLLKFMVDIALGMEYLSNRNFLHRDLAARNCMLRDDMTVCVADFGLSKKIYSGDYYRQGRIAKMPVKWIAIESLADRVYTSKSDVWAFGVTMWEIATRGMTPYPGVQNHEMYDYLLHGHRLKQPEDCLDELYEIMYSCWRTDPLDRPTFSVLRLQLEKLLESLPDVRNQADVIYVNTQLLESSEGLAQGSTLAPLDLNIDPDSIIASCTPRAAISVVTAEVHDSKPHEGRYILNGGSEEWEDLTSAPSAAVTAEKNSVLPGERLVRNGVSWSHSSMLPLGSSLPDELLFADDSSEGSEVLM
How it was run: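 Recombinant human kinase preincubated 1 h at RT with compound, then reacted 2 h at RT with 800 nM biotin-TK substrate and 700 μM ATP (final; 5 nM AXL, 1 nM TYRO3 or MER) in HEPES pH 7.4, MgCl2, BSA, DTT, 1% DMSO. HTRF 665/620 ratio read; percent activity versus DMSO and pre-quenched controls.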

Row | SMILES | IC50
1 | C[C@@H]1CCCN1C1(C)CCc2ccc(-c3cnc4[nH]nc(-c5ccc(S(=O)(=O)C6CC6)cc5)c4c3)cc2CC1 (stereo partly drawn) [Example 1, 3-(4-(Cyclopropylsulfonyl)phenyl)-5-(7-methyl-7-((R)-2-methylpyrrolidin-1-yl)-6,7,8,9-tetrahydro-5H-benzo[7]annulen-2-yl)-1H-pyrazolo[3,4-b]pyridine] | 100 to 1000 nM
2 | CC1(N2CCOCC2)CCc2ccc(-c3cnc4[nH]nc(-c5ccc(S(=O)(=O)C6CC6)cc5)c4c3)cc2CC1 (centres unmarked) [Example 2, 4-(2-{3-[4-(Cyclopropanesulfonyl)phenyl]-1H-pyrazolo[3,4-b]pyridin-5-yl}-7-methyl-6,7,8,9-tetrahydro-5H-benzo[7]annulen-7-yl)morpholine] | > 1000 nM
3 | CC1(N2CCC[C@@H]2CO)CCc2ccc(-c3cnc4[nH]nc(-c5ccc(S(=O)(=O)C6CC6)cc5)c4c3)cc2CC1 (stereo partly drawn) [Example 3, [(2R)-1-(2-{3-[4-(Cyclopropanesulfonyl)phenyl]-1H-pyrazolo[3,4-b]pyridin-5-yl}-7-methyl-6,7,8,9-tetrahydro-5H-benzo[7]annulen-7-yl)pyrrolidin-2-yl]methanol] | 100 to 1000 nM
4 | C[C@@H]1CCCN1C1CCc2ccc(-c3cnc4[nH]nc(-c5ccc(C6(O)CCOC6)c(Cl)c5)c4c3)cc2CC1 (stereo partly drawn) [Example 63, 3-[2-Chloro-4-(5-{7-[(2R)-2-methylpyrrolidin-1-yl]-6,7,8,9-tetrahydro-5H-benzo[7]annulen-2-yl}-1H-pyrazolo[3,4-b]pyridin-3-yl)phenyl]oxolan-3-ol] | 100 to 1000 nM
5 | C[C@@H]1CCCN1C1CCc2ccc(-c3cnc4[nH]nc(-c5ccc(C6(O)COC6)c(Cl)c5)c4c3)cc2CC1 (stereo partly drawn) [Example 64, 3-[2-Chloro-4-(5-{7-[(2R)-2-methylpyrrolidin-1-yl]-6,7,8,9-tetrahydro-5H-benzo[7]annulen-2-yl}-1H-pyrazolo[3,4-b]pyridin-3-yl)phenyl]oxetan-3-ol] | > 1000 nM
6 | C[C@@H]1CCCN1C1CCc2ccc(-c3cnc4[nH]nc(-c5cnc(C(C)(C)O)c(Cl)c5)c4c3)cc2CC1 (stereo partly drawn) [Example 65, 2-[3-Chloro-5-(5-{7-[(2R)-2-methylpyrrolidin-1-yl]-6,7,8,9-tetrahydro-5H-benzo[7]annulen-2-yl}-1H-pyrazolo[3,4-b]pyridin-3-yl)pyridin-2-yl]propan-2-ol] | 100 to 1000 nM
7 | COC1CCN(C(=O)c2ccc(-c3n[nH]c4ncc(-c5ccc6c(c5)CC[C@@H](N5CCCC5)CC6)cc34)cc2Cl)CC1 [Example 66, (S)-(2-Chloro-4-(5-(7-(pyrrolidin-1-yl)-6,7,8,9-tetrahydro-5H-benzo[7]annulen-2-yl)-1H-pyrazolo[3,4-b]pyridin-3-yl)phenyl)(4-methoxypiperidin-1-yl)methanone] | 100 to 1000 nM
8 | COC1CCN(C(=O)c2ccc(-c3n[nH]c4ncc(-c5ccc6c(c5)CCC(C)(N5CCC[C@H]5C)CC6)cc34)cc2Cl)CC1 (stereo partly drawn) [Example 67, 1-[2-Chloro-4-(5-{7-methyl-7-[(2R)-2-methylpyrrolidin-1-yl]-6,7,8,9-tetrahydro-5H-benzo[7]annulen-2-yl}-1H-pyrazolo[3,4-b]pyridin-3-yl)benzoyl]-4-methoxypiperidine] | 100 to 1000 nM
9 | C[C@@H]1CCCN1C1(C)CCc2ccc(-c3cnc4[nH]nc(-c5ccc(C(N)=O)c(Cl)c5)c4c3)cc2CC1 (stereo partly drawn) [Example 68, 2-Chloro-4-(5-{7-methyl-7-[(2R)-2-methylpyrrolidin-1-yl]-6,7,8,9-tetrahydro-5H-benzo[7]annulen-2-yl}-1H-pyrazolo[3,4-b]pyridin-3-yl)benzamide] | < 100 nM
10 | C[C@@H]1CCCN1C1(C)CCc2ccc(-c3cnc4[nH]nc(-c5ccc(C(=O)NC6CC6)cc5)c4c3)cc2CC1 (stereo partly drawn) [Example 69, N-Cyclopropyl-4-(5-{7-methyl-7-[(2R)-2-methylpyrrolidin-1-yl]-6,7,8,9-tetrahydro-5H-benzo[7]annulen-2-yl}-1H-pyrazolo[3,4-b]pyridin-3-yl)benzamide] | 100 to 1000 nM
11 | CC(C)NC(=O)c1ccc(-c2n[nH]c3ncc(-c4ccc5c(c4)CCC(C)(N4CCC[C@H]4C)CC5)cc23)cc1 (stereo partly drawn) [Example 70, 4-(5-{7-Methyl-7-[(2R)-2-methylpyrrolidin-1-yl]-6,7,8,9-tetrahydro-5H-benzo[7]annulen-2-yl}-1H-pyrazolo[3,4-b]pyridin-3-yl)-N-(propan-2-yl)benzamide] | > 1000 nM
12 | COCCNC(=O)c1ccc(-c2n[nH]c3ncc(-c4ccc5c(c4)CCC(C)(N4CCC[C@H]4C)CC5)cc23)cc1 (stereo partly drawn) [Example 72, N-(2-Methoxyethyl)-4-(5-{7-methyl-7-[(2R)-2-methylpyrrolidin-1-yl]-6,7,8,9-tetrahydro-5H-benzo[7]annulen-2-yl}-1H-pyrazolo[3,4-b]pyridin-3-yl)benzamide] | > 1000 nM
13 | CCC1(N2CCC[C@H]2C)CCc2ccc(-c3cnc4[nH]nc(-c5ccc(C(N)=O)c(Cl)c5)c4c3)cc2CC1 (stereo partly drawn) [Example 73, 2-Chloro-4-(5-{7-ethyl-7-[(2R)-2-methylpyrrolidin-1-yl]-6,7,8,9-tetrahydro-5H-benzo[7]annulen-2-yl}-1H-pyrazolo[3,4-b]pyridin-3-yl)benzamide] | < 100 nM
14 | CCC1(N2CCC[C@@H]2CO)CCc2ccc(-c3cnc4[nH]nc(-c5ccc(C(N)=O)c(Cl)c5)c4c3)cc2CC1 (stereo partly drawn) [Example 74, 2-Chloro-4-(5-{7-ethyl-7-[(2R)-2-(hydroxymethyl)pyrrolidin-1-yl]-6,7,8,9-tetrahydro-5H-benzo[7]annulen-2-yl}-1H-pyrazolo[3,4-b]pyridin-3-yl)benzamide] | < 100 nM
15 | CCC1(N2CCC[C@H]2CO)CCc2ccc(-c3cnc4[nH]nc(-c5ccc(C(N)=O)c(Cl)c5)c4c3)cc2CC1 (stereo partly drawn) [Example 75, 2-Chloro-4-(5-{7-ethyl-7-[(2S)-2-(hydroxymethyl)pyrrolidin-1-yl]-6,7,8,9-tetrahydro-5H-benzo[7]annulen-2-yl}-1H-pyrazolo[3,4-b]pyridin-3-yl)benzamide] | < 100 nM
16 | C[C@@H]1CCCN1C1(C)CCc2ccc(-c3cnc4[nH]nc(-c5ccc(C(=O)N6CCC6)cc5)c4c3)cc2CC1 (stereo partly drawn) [Example 76, (2R)-1-(2-{3-[4-(Azetidine-1-carbonyl)phenyl]-1H-pyrazolo[3,4-b]pyridin-5-yl}-7-methyl-6,7,8,9-tetrahydro-5H-benzo[7]annulen-7-yl)-2-methylpyrrolidine] | 100 to 1000 nM
17 | NC(=O)c1ccc(-c2n[nH]c3ncc(-c4ccc5c(c4)CCC(N4CCCC4)CC5)cc23)cc1Cl (centres unmarked) [Example 77, 2-Chloro-4-(5-(7-(pyrrolidin-1-yl)-6,7,8,9-tetrahydro-5H-benzo[7]annulen-2-yl)-1H-pyrazolo[3,4-b]pyridin-3-yl)benzamide] | < 100 nM
18 | NC(=O)c1ccc(-c2n[nH]c3ncc(-c4ccc5c(c4)CCC(N4CCCC4)CC5)cc23)cc1 (centres unmarked) [Example 78, 4-(5-(7-(Pyrrolidin-1-yl)-6,7,8,9-tetrahydro-5H-benzo[7]annulen-2-yl)-1H-pyrazolo[3,4-b]pyridin-3-yl)benzamide] | 100 to 1000 nM
19 | Cc1cc(-c2n[nH]c3ncc(-c4ccc5c(c4)CCC(N4CCCC4)CC5)cc23)cc(F)c1C(N)=O (centres unmarked) [Example 79, 2-Fluoro-6-methyl-4-(5-(7-(pyrrolidin-1-yl)-6,7,8,9-tetrahydro-5H-benzo[7]annulen-2-yl)-1H-pyrazolo[3,4-b]pyridin-3-yl)benzamide] | 100 to 1000 nM
20 | NC(=O)c1ccc(-c2n[nH]c3ncc(-c4ccc5c(c4)CCC(N4CCCC4)CC5)cc23)cc1C(F)(F)F (centres unmarked) [Example 80, 4-(5-(7-(Pyrrolidin-1-yl)-6,7,8,9-tetrahydro-5H-benzo[7]annulen-2-yl)-1H-pyrazolo[3,4-b]pyridin-3-yl)-2-(trifluoromethyl)benzamide] | 100 to 1000 nM
21 | NC(=O)c1ccc(-c2n[nH]c3ncc(-c4ccc5c(c4)CCC(N4CCCC4)CC5)cc23)cc1F (centres unmarked) [Example 81, 2-Fluoro-4-(5-(7-(pyrrolidin-1-yl)-6,7,8,9-tetrahydro-5H-benzo[7]annulen-2-yl)-1H-pyrazolo[3,4-b]pyridin-3-yl)benzamide] | 100 to 1000 nM
22 | O=C(c1ccc(-c2n[nH]c3ncc(-c4ccc5c(c4)CC[C@@H](N4CCCC4)CC5)cc23)cc1Cl)N1CCNCC1 [Example 82, (S)-(2-Chloro-4-(5-(7-(pyrrolidin-1-yl)-6,7,8,9-tetrahydro-5H-benzo[7]annulen-2-yl)-1H-pyrazolo[3,4-b]pyridin-3-yl)phenyl)(piperazin-1-yl)methanone] | < 100 nM
23 | Cc1cc(-c2n[nH]c3ncc(-c4ccc5c(c4)CC[C@@H](N4CCCC4)CC5)cc23)cc(F)c1C(N)=O [Example 83, (S)-2-Fluoro-6-methyl-4-(5-(7-(pyrrolidin-1-yl)-6,7,8,9-tetrahydro-5H-benzo[7]annulen-2-yl)-1H-pyrazolo[3,4-b]pyridin-3-yl)benzamide] | < 100 nM
